pIC50: −log10 of the molar value.

The target of this experiment is T1, human EP3 receptor (Homo sapiens, UniProt P43115).
T1 construct: expressed in transfected cells; host or cells: CHO K1 (Chinese Hamster Ovary), stably co-transfected with Galpha16 and mitochondrial clytin
T1 sequence (P43115 1-390): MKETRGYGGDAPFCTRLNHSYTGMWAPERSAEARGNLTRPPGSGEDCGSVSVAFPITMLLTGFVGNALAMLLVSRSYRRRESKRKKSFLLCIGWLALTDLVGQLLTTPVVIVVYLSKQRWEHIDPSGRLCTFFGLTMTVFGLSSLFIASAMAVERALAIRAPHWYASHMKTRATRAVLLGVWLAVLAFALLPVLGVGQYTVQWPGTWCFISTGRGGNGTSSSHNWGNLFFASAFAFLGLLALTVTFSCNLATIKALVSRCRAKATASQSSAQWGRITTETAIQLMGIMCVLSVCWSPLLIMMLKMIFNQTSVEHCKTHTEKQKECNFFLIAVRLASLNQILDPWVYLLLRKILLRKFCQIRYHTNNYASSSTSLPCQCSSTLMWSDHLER
As to the kind of experiment: Cellular in vitro assay for determining EP3 receptor activity (human EP3 cell line, sulprostone-stimulated calcium luminescence). The settings on record: CHO cells expressing human EP3 and mitochondrial Clytin; antagonist mode, sulprostone at EC50; read-out: EP3 CHO mtCLY ANTAG IC50. Type of experiment: cell-based. The method, boiled down: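 Antagonist activity was measured as inhibition of the luminescent calcium signal elicited by EC50 sulprostone, following 10 min compound pretreatment. The cell line was recombinant CHO K1 co-expressing human EP3, Gα16 and the photoprotein Clytin, reconstituted with coelenterazine.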
For `C[C@H](NC(=O)c1nn2cc(-c3ccc(Cl)c(F)c3)[nH]c(=O)c2c1C1CC1(F)F)C1CC1` (stereo partly shown) [6-566], the pIC50 (as a rule, −log10 of the IC50, conventionally taken in molar units) is 8.65.

With `O=C(N[C@@H](c1ccc(F)cc1)C(F)(F)CO)c1nn2cc(-c3ccc(Cl)c(Cl)c3)[nH]c(=O)c2c1C1CCC1` [6-567], the pIC50 is 8.60.

As for `CC(C)(O)[C@@H](NC(=O)c1nn2cc(-c3ccc(Cl)c(Cl)c3)[nH]c(=O)c2c1C1CCC1)c1ccc(F)cc1` [6-568], the pIC50 is 8.98.

As to `C[C@H](NC(=O)c1nn2cc(-c3ccc(Cl)c(Cl)c3)[nH]c(=O)c2c1C1CCC1)C1CC1` [6-569], the pIC50 is 8.84.

For `C[C@H](NC(=O)c1nn2cc(-c3ccc(Cl)c(F)c3)[nH]c(=O)c2c1C1CCC1)C1CC1` [6-570], the pIC50 was 8.89.

`O=C(N[C@@H](c1ccc(F)cc1)C(F)(F)CO)c1nn2cc(-c3ccc(Cl)c(F)c3)[nH]c(=O)c2c1C1CCC1` [6-571]: the negative logarithm of the IC50 (pIC50) is 8.82.

For `CC(C)(O)[C@@H](NC(=O)c1nn2cc(-c3ccc(Cl)c(F)c3)[nH]c(=O)c2c1C1CCC1)c1ccc(F)cc1` [6-572], the pIC50 is 8.55.

Take `Cc1ccc(-c2cn3nc(C(=O)N[C@@H](c4ccc(F)cc4)C(C)(C)O)c(C4CCC4)c3c(=O)[nH]2)cc1F` [6-573]: the pIC50 was 8.90.

Regarding `Cc1ccc(-c2cn3nc(C(=O)NC4(c5ccc(F)cc5)CN(C)C4)c(C4CCC4)c3c(=O)[nH]2)cc1F` [6-574], the pIC50 was 8.82.

Turning to `Cc1ccc(-c2cn3nc(C(=O)N[C@H](C)CO)c(C4CCC4)c3c(=O)[nH]2)cc1F` [6-575], the pIC50 was 8.71.

Regarding `Cc1ccc(-c2cn3nc(C(=O)N[C@@H](C)CO)c(C4CCC4)c3c(=O)[nH]2)cc1F` [6-576], the negative logarithm of the IC50 (pIC50) is 8.43.

For `Cc1ccc(-c2cn3nc(C(=O)N[C@@H](c4ccc(F)cc4)C(C)(C)O)c(C4CCC4)c3c(=O)[nH]2)cc1C` [6-577], the pIC50 is 8.57.

For the compound `Cc1ccc(-c2cn3nc(C(=O)N[C@@H](C)CO)c(C4CCC4)c3c(=O)[nH]2)cc1C` [6-578], the pIC50 was 8.64.

On to `Cc1ncc(-c2cn3nc(C(=O)N[C@@H](c4ccc(F)cc4)C(C)(C)O)c(C4CC4)c3c(=O)[nH]2)cc1Cl` [6-579], for which the pIC50 was 9.07.

For the compound `C[C@H](NC(=O)c1nn2cc(-c3cc(Cl)c(Cl)cc3F)[nH]c(=O)c2c1C1CC1)C1CC1` [6-581], the pIC50 is 8.80.

Turning to `O=C(N[C@@H](c1ccc(F)cc1)C(F)(F)CO)c1nn2cc(-c3cc(Cl)c(Cl)cc3F)[nH]c(=O)c2c1C1CC1` [6-582], the pIC50 was 8.58.

Take `CC(C)(O)[C@@H](NC(=O)c1nn2cc(-c3cc(Cl)c(Cl)cc3F)[nH]c(=O)c2c1C1CC1)c1ccc(F)cc1` [6-583]: the pIC50 is 9.20.

With `CC(C)(O)[C@@H](NC(=O)c1nn2cc(-c3cc(F)c(Cl)cc3F)[nH]c(=O)c2c1C1CC1)c1ccc(F)cc1` [6-584], the pIC50 was 8.13.

On to `O=C(N[C@@H](c1ccc(F)cc1)C(F)(F)CO)c1nn2cc(-c3cc(F)c(Cl)cc3F)[nH]c(=O)c2c1C1CC1` [6-585], for which the pIC50 was 8.52.

On to `COc1ccc(-c2cn3nc(C(=O)N[C@@H](c4ccc(F)cc4)C(F)(F)CO)c(C4CC4)c3c(=O)[nH]2)cc1F` [6-586], for which the pIC50 was 8.87.

As for `COc1ccc(-c2cn3nc(C(=O)N[C@@H](c4ccc(F)cc4)C(C)(C)O)c(C4CC4)c3c(=O)[nH]2)cc1F` [6-587], the negative-log IC50 (pIC50) was 9.08.

On to `CC(C)(O)[C@@H](NC(=O)c1nn2cc(-c3ccc(C(F)(F)F)c(F)c3)[nH]c(=O)c2c1C1CC1)c1ccc(F)cc1` [6-588], for which the pIC50 was 8.25.

On to `Cc1nc(-c2cn3nc(C(=O)N[C@@H](c4ccc(F)cc4)C(C)(C)O)c(C4CC4)c3c(=O)[nH]2)ccc1Cl` [6-590], for which the pIC50 is 8.92.

Turning to `Cc1nc(-c2cn3nc(C(=O)N[C@@H](c4ccc(F)cc4)C(F)(F)CO)c(C4CC4)c3c(=O)[nH]2)ccc1Cl` [6-591], the pIC50 is 8.89.

On to `CC(C)(O)[C@@H](NC(=O)c1nn2cc(-c3ccc(Cl)c(OC(F)(F)F)c3)[nH]c(=O)c2c1C1CC1)c1ccc(F)cc1` [6-592], for which the pIC50 was 8.73.

As to `Cc1cc(-c2cn3nc(C(=O)NC4(c5ccc(F)cc5)CN(C)C4)c(C4CC4)c3c(=O)[nH]2)c(F)cc1Cl` [6-593], the negative-log IC50 (pIC50) is 8.07.

As to `Cc1cc(-c2cn3nc(C(=O)N[C@@H](c4ccc(F)cc4)C(C)(C)O)c(C4CC4)c3c(=O)[nH]2)c(F)cc1Cl` [6-594], the pIC50 was 9.34.

In the case of `Cc1ccc(-c2cn3nc(C(=O)N[C@@H](c4ccc(F)cc4)C(C)(C)O)c(C4CC4)c3c(=O)[nH]2)c(F)c1F` [6-596], the pIC50 was 8.55.

As for `CC(C)(O)[C@@H](NC(=O)c1nn2cc(-c3ccc(C(F)(F)F)c(Cl)c3)[nH]c(=O)c2c1C1CC1)c1ccc(F)cc1` [6-598], the pIC50 is 8.63.

For `Cn1cnc2cc(-c3cn4nc(C(=O)N[C@@H](c5ccc(F)cc5)C(C)(C)O)c(C5CC5)c4c(=O)[nH]3)ccc21` [6-599], the pIC50 is 8.68.

`COC[C@@H](NC(=O)c1nn2cc(-c3ccc4c(c3)ncn4C)[nH]c(=O)c2c1C1CC1)c1ccccc1` [6-600]: the negative logarithm of the IC50 (pIC50) is 8.64.

In the case of `O=C(N[C@@H](c1ccc(F)cc1)C(F)(F)CO)c1nn2cc(-c3ccc(C(F)(F)F)c(F)c3F)[nH]c(=O)c2c1C1CC1` [6-601], the pIC50 is 8.37.

For `CC(C)(O)[C@@H](NC(=O)c1nn2cc(-c3ccc(C(F)(F)F)c(F)c3F)[nH]c(=O)c2c1C1CC1)c1ccc(F)cc1` [6-602], the pIC50 is 8.25.

With `Cc1c(C(=O)N[C@@H](c2ccc(F)cc2)C(C)(C)O)nn2c(C)c(-c3ccc4ccccc4c3)[nH]c(=O)c12` [6-604], the pIC50 was 8.73.

As to `Cc1cc(-c2cn3nc(C(=O)N[C@@H](c4ccc(F)cc4)C(F)(F)CO)c(C(C)C)c3c(=O)[nH]2)ccc1Cl` [6-605], the pIC50 was 8.42.

With `Cc1cc(-c2cn3nc(C(=O)N[C@@H](c4ccc(F)cc4)C(C)(C)O)c(C(C)C)c3c(=O)[nH]2)ccc1Cl` [6-606], the negative-log IC50 (pIC50) was 8.64.

In the case of `Cc1cc(-c2cn3nc(C(=O)NC4(c5ccc(F)cc5)CN(C)C4)c(C(C)C)c3c(=O)[nH]2)ccc1Cl` [6-607], the pIC50 was 8.53.

Turning to `Cc1cc(-c2cn3nc(C(=O)N[C@@H](C)C4CC4)c(C(C)C)c3c(=O)[nH]2)ccc1Cl` [6-608], the pIC50 is 8.72.

Regarding `Cc1cc(-c2cn3nc(C(=O)N[C@H](C)C4CC4)c(C(C)C)c3c(=O)[nH]2)ccc1Cl` [6-609], the pIC50 was 8.82.

In the case of `CC[C@@H](C)NC(=O)c1cc2c(=O)[nH]c(-c3ccc(C)c(C4CC4)c3)cn2n1` [6-613], the pIC50 is 8.44.

Consider `CCCc1c(C(=O)N[C@H](C)c2ccc(F)cc2)nn2cc(-c3ccc(C)c(C)c3)[nH]c(=O)c12` [6-614], for which the negative logarithm of the IC50 (pIC50) was 9.09.

On to `CCCc1c(C(=O)NC2(c3ccc(F)cc3)CN(C)C2)nn2cc(-c3ccc(C)c(C)c3)[nH]c(=O)c12` [6-616], for which the pIC50 is 9.11.

On to `Cc1ccc(-c2[nH]c(=O)c3c(C4CC4)c(C(=O)N[C@@H](c4ccc(F)cc4)C(C)(C)O)nn3c2C#N)cc1C` [6-617], for which the pIC50 was 8.12.

Turning to `Cc1cc(-c2cn3nc(C(=O)N[C@@H](C)C4CC4)c(C4CCC4)c3c(=O)[nH]2)ccc1Cl` [6-618], the pIC50 was 9.00.

On to `Cc1cc(-c2cn3nc(C(=O)N[C@@H](c4ccc(F)cc4)C(F)(F)CO)c(C4CCC4)c3c(=O)[nH]2)ccc1Cl` [6-619], for which the negative logarithm of the IC50 (pIC50) was 8.94.

On to `Cc1cc(-c2cn3nc(C(=O)N[C@@H](c4ccc(F)cc4)C(C)(C)O)c(C4CCC4)c3c(=O)[nH]2)ccc1Cl` [6-620], for which the negative logarithm of the IC50 (pIC50) was 8.82.

Source of the values: patent US20220324865A1 (Bayer Aktiengesellschaft, priority 2018, published 2022).
